The values below come from patent US5300279A, “Organic amine phosphonic acid complexes for the treatment of calcific tumors” (The Dow Chemical Company, priority 1990, dated 1994).

Series [1] is described as follows: biolocalization of the radionuclide in rats (tissue distribution after tail vein injection). The note with it: Lu-177 (Ex. 14, 15; 5 rats) or Ho-166 (Ex. 16; 3 rats), two hour. It counts as in vivo, male Sprague Dawley rats. The method, then: Studies to determine the qualitative biodistribution of the various radionuclides were conducted by injecting the compositions into rats and obtaining the gamma ray images of the entire animal at various times up to two hours after injection.
Laboratory rats were injected with the above complex (50-100 μl) via the tail vein. After 2 hours, the animals were sacrificed by cervical dislocation and organs and tissues removed. Samples were counted with a NaI counter to determine the biolocalization of the radionuclide.

A further series has as its system tumor. The note with it: female Irish Wolfhound, possible osteosarcoma; 0.97 mCi/kg. On the procedure: An English Setter with a tumor in his pelvis was injected with approximately 19 mCi of a composition containing Sm-153-EDTMP. After 2 hours, the dog was imaged using a scintillation camera.
An Irish setter with undifferentiated sarcoma metastatic to bone was treated with 16 mCi (0.57 mCi/kg) of a composition containing Sm-153-EDTMP. […] After approximately 3 months, when signs of lameness began to reappear, the dog was given a second treatment of 15 mCi (0.49 mCi/kg), of a composition containing Sm-153-EDTMP.
A female Irish Wolfhound with a possible osteosarcoma on the left distal radius was injected with a composition containing ^166 Ho-EDTMP (0.97 mCi/kg).

A short description of series [2]: localization of radioactivity (composition judged unacceptable). The note with it: Sm-153; species not stated. It is filed as in vivo.

For `O=P(O)(O)CN(CCN(CP(=O)(O)O)CP(=O)(O)O)CP(=O)(O)O.[166Ho+3]` [Example 16], in series [1], the “% Dose in Blood” value came to 0.03 % Dose, the “% Dose in Kidneys” value stood at 0.26 % Dose, the “% Dose in Liver” value came to 0.05 % Dose and the “% Dose in Muscle” value was 0.10 % Dose. The “% Dose in Skeleton” value in series [1] is 48 % Dose. Further, in series [1] (ratio of percent dose per gram), the Bone/Blood came out at 1114 and the Bone/Muscle was found to be 2292. In the series on tumor, the additional survival came to 9 months and the “survival compared with usual expected life” value was “greater than the usual expected life of a dog with osteosarcoma”.

In the case of `O=P(O)(O)CN(CCO)CP(=O)(O)O.[153Sm+3]`, the “localization of radioactivity in the liver” value in series [2] is recorded as “a significant portion of the radioactivity localized in the liver”.
